Source: patent US12673039B2, “Methods of inducing autophagy using coumarin derivatives and related compounds” (Buck Institute for Research on Aging, priority 2019, dated 2026)

System: NL5901, CL2006 and CL4176 worms
Assay: Motor function (thrashing, paralysis) in worms expressing human α-synuclein or Aβ in muscles
Assay type: in vivo, C. elegans
Details: NL5901, human α-synuclein within muscles
From the text: FIG. 21, panels A-F: AIC106 prevents neuronal loss and proteotoxicity in strains expressing human neurotoxic proteins. Panel A) Dopaminergic neuronal loss in day-5 UA44 worms was quantified by scoring percentage of worms with intact 4-CEP neurons in AIC106 and DMSO-control treatment. [N=3 independent experiments (mean±SD). ***p<0.001, by one-way ANOVA with Tukey's multiple comparisons test]. Motor function in (panel B) day-7 NL5901 and (panel C) day-5 CL2006 worms were quantified by scoring number of thrashes for an individual worm over the period of 30 seconds (dots) in AIC106 and DMSO-control treatment. […] Panel D) Motor function in temperature sensitive (enhanced paralysis at 25° C.) CL4176 worms was determined by scoring percent of worms paralyzed in AIC106 and DMSO-control treatment. […] P-value calculated by Logrank test]. Panel F) Effect of AIC106 on polyQ40 aggregation was determined by scoring number of polyQ40-YFP fluorescent puncta in an individual AM141 worm treated with AIC106 and DMSO-control. […]
FIG. 22, panels A-H: AIC106-induced HLH-30 expression is mediated by the nuclear hormone receptor DAF-12. […] Panel B) Relative fold change in mRNA of hlh-30 compared to DMSO-control was quantified using qRT-PCR in young adult wild-type N2 and daf-12(rh61rh411) worms post-24 hours treatment with AIC106. […]

With `O=c1oc2c3c4c(cc2c2c1CCC2)CCCN4CCC3` [C1, 2,3,6,7,10,11-Hexahydro-1H,5H-cyclopenta(3,4)(1)benzopyrano(6,7,8-ij)quinolizin-12(9H)-one] the “motor function (thrashing rate)” value was “improved motor function”.
For `Cc1cccc(C)c1OCc1cc(C(=O)N2CCC(c3ccncc3)CC2)no1` [DFA, dafadine-A, reference compound], the “motor function (thrashing rate)” value was “improved motor function”.
